Here are results for 17 compounds from US20100311714A1, “1H-IMIDAZO[4,5-c]QUINOLINONE COMPOUNDS” (priority 2009, published 2010).

Data set [1] can be described thus: Parallel Artificial Membrane Permeability Assay (PAMPA) at pH 6.8. The format is physicochemical. In outline: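 PAMPA permeability measured at pH 6.8 following the Wohnsland and Faller method; value reported as log Pe.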
A further data set concerns the target T1, mTOR (Homo sapiens, UniProt P42345).
T1 construct: purchased Invitrogen Corporation (Carlsbad/Calif., USA) PV4753
Nature of the data set: Biochemical assay for m-TOR by TR-FRET. To be noted: read-out: EPK_mTOR/IC50. In outline:
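mTOR (0.5 nM) phosphorylates GFP-4EBP1 (400 nM) with 8 μM ATP at rt in 50 mM HEPES pH 7.5, 10 mM MnCl2, 50 mM NaCl, 1 mM EGTA, 1 mM DTT; compounds 0.003–10 μM final. EDTA stop with Tb-anti-p4EBP1[pT46] antibody (0.5 nM); TR-FRET read after 15 min against no-enzyme and vehicle controls.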

The test system of data set [2] is PKB Ser473 phosphorylation in Rat1-myr-HA-p110 alpha cells. Nature of the data set: Reverse protein array, PKB Ser473 phosphorylation in Rat1-myr-HA-p110 alpha cells. To be noted: Rattus norvegicus, 0.5 h, 30 minutes compound incubation, read-out: p-PKB/IC50_alpha. The format is cell-based.
Data set [3] concerns PKB Ser473 phosphorylation in Rat1-myr-HA-p110 beta cells. Nature of the data set: Reverse protein array, PKB Ser473 phosphorylation in Rat1-myr-HA-p110 beta cells. The class given is cell-based. To be noted: Rattus norvegicus, 0.5 h, 30 minutes compound incubation, read-out: p-PKB/IC50_beta.

T1 sequence (P42345 1360-2549 limits assumed): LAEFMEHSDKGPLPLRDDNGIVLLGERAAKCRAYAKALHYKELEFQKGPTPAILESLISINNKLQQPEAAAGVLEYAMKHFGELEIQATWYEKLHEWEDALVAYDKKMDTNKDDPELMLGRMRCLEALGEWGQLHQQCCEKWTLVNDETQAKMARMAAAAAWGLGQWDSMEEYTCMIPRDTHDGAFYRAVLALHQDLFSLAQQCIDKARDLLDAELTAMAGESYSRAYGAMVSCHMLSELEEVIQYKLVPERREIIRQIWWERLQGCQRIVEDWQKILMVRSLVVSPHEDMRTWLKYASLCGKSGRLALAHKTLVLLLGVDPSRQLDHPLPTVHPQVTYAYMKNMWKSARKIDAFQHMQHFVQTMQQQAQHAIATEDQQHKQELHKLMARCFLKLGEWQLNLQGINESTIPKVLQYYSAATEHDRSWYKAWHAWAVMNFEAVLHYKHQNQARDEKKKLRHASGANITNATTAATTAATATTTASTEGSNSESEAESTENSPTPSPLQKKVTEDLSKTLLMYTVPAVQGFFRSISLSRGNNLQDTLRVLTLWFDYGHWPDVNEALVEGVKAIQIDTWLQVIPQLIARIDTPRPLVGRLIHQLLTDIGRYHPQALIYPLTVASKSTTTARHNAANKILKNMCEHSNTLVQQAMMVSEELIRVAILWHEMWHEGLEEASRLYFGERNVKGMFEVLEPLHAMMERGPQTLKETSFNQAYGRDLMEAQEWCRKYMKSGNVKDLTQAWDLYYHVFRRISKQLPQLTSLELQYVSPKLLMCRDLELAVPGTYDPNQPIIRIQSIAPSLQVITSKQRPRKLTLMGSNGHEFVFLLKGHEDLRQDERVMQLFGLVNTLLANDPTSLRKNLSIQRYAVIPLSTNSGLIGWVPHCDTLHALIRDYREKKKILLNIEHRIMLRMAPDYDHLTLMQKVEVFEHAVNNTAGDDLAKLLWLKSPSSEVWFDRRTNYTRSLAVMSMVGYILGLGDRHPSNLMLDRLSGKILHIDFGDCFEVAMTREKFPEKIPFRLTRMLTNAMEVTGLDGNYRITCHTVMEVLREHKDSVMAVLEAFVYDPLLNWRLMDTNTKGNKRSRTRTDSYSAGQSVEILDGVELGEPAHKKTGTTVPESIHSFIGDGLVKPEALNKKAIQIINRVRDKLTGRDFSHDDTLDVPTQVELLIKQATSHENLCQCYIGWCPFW

With `CCNc1cc(-c2ccc3ncc4c(c3c2)n(-c2ccc(N(C)CCOC)nc2C)c(=O)n4C)cnc1C` [Example 15.6, 8-(5-Ethylamino-6-methyl-pyridin-3-yl)-1-{6-[(2-methoxy-ethyl)-methyl-amino]-2-methyl-pyridin-3-yl}-3-methyl-1,3-dihydro-imidazo[4,5-c]quinolin-2-one], the “HT-Perm logPe pH6.8” value in data set [1] is reported as −3.6. The results for the IC50 (at mTOR; in data set [2]; in data set [3]) were 0.006 µM, 0.0048 µM and 0.007 µM, respectively.

Take `COCCN(C)c1ccc(-n2c(=O)n(C)c3cnc4ccc(-c5cnc6c(ccn6C)c5)cc4c32)c(C)n1` [Example 15.7, 1-{6-[(2-Methoxy-ethyl)-methyl-amino]-2-methyl-pyridin-3-yl}-3-methyl-8-(1-methyl-1H-pyrrolo[2,3-b]pyridin-5-yl)-1,3-dihydro-imidazo[4,5-c]quinolin-2-one]: the “HT-Perm logPe pH6.8” value in data set [1] is −3.9. Further, the IC50 at mTOR is 0.075 µM; in data set [2] it was 0.0096 µM; in data set [3] it was 0.0244 µM.

Take `COCCN(C)c1ccc(-n2c(=O)n(C)c3cnc4ccc(-c5cncc(N)c5)cc4c32)c(C)n1` [Example 15.8, 8-(5-Amino-pyridin-3-yl)-1-{6-[(2-methoxy-ethyl)-methyl-amino]-2-methyl-pyridin-3-yl}-3-methyl-1,3-dihydro-imidazo[4,5-c]quinolin-2-one]: the “HT-Perm logPe pH6.8” value in data set [1] is reported as −5.1. The IC50 worked out at 0.011 µM on mTOR, 0.0051 µM in data set [2] and 0.0232 µM in data set [3].

Regarding `Cc1cc(F)ncc1-n1c(=O)n(C)c2cnc3ccc(-c4cnc(N)c(C(F)(F)F)c4)cc3c21` [Example 16.1, 8-(6-Amino-5-trifluoromethyl-pyridin-3-yl)-1-(6-fluoro-4-methyl-pyridin-3-yl)-3-methyl-1,3-dihydro-imidazo[4,5-c]quinolin-2-one], in data set [1], the “HT-Perm logPe pH6.8” value is on record as −3.7. Also, the values for the IC50 (on mTOR; in data set [2]; in data set [3]) were 0.11 µM, 0.0133 µM and 0.0656 µM, respectively.

Take `CCNc1cc(-c2ccc3ncc4c(c3c2)n(-c2cnc(F)cc2C)c(=O)n4C)cnc1C` [Example 16.2, 8-(5-Ethylamino-6-methyl-pyridin-3-yl)-1-(6-fluoro-4-methyl-pyridin-3-yl)-3-methyl-1,3-dihydro-imidazo[4,5-c]quinolin-2-one]: in data set [1], the “HT-Perm logPe pH6.8” value is given as −3.8. Also, the IC50 at mTOR was 0.053 µM; in data set [2], 0.0218 µM; in data set [3], 0.0783 µM.

With `CNc1ncc(-c2ccc3ncc4c(c3c2)n(-c2cnc(F)cc2C)c(=O)n4C)cn1` [Example 16.3, 1-(6-Fluoro-4-methyl-pyridin-3-yl)-3-methyl-8-(2-methylamino-pyrimidin-5-yl)-1,3-dihydro-imidazo[4,5-c]quinolin-2-one], in data set [1], the “HT-Perm logPe pH6.8” value is given as −4.4. For the same compound, the figures for the IC50 (at mTOR; in data set [2]; in data set [3]) were 0.151 µM, 0.0641 µM and 0.302 µM, respectively.

As to `CNc1ccc(-c2ccc3ncc4c(c3c2)n(-c2cnc(F)cc2C)c(=O)n4C)cn1` [Example 16.4, 1-(6-Fluoro-4-methyl-pyridin-3-yl)-3-methyl-8-(6-methylamino-pyridin-3-yl)-1,3-dihydro-imidazo[4,5-c]quinolin-2-one], in data set [1], the “HT-Perm logPe pH6.8” value is −4.2. Also, the IC50 at mTOR is 0.704 µM; in data set [2], 0.0307 µM; in data set [3], 0.141 µM.

With `CCOc1ccc(-c2ccc3ncc4c(c3c2)n(-c2cncc(C)c2)c(=O)n4C)cn1` [Example 17.1, 8-(6-Ethoxy-pyridin-3-yl)-3-methyl-1-(5-methyl-pyridin-3-yl)-1,3-dihydro-imidazo[4,5-c]quinolin-2-one], in data set [1], the “HT-Perm logPe pH6.8” value was −4.5. The IC50 on mTOR is 0.484 µM; in data set [2], 0.0534 µM; in data set [3], 0.202 µM.

Consider `CNc1cc(-c2ccc3ncc4c(c3c2)n(-c2ccc(N(C)C)nc2C)c(=O)n4C)cnc1C` [Example 19.2, 1-(6-Dimethylamino-2-methyl-pyridin-3-yl)-3-methyl-8-(6-methyl-5-methylamino-pyridin-3-yl)-1,3-dihydro-imidazo[4,5-c]quinolin-2-one], for which the “HT-Perm logPe pH6.8” value in data set [1] is −4.1. Besides, the IC50 at mTOR is 0.009 µM; in data set [2] it was less than 0.00457 µM; in data set [3], less than 0.00457 µM.

For the compound `COc1cc(-c2ccc3ncc4c(c3c2)n(-c2ccc(N(C)C)nc2C)c(=O)n4C)cnc1CO` [Example 19.4, 1-(6-Dimethylamino-2-methyl-pyridin-3-yl)-8-(6-hydroxymethyl-5-methoxy-pyridin-3-yl)-3-methyl-1,3-dihydro-imidazo[4,5-c]quinolin-2-one], in data set [1], the “HT-Perm logPe pH6.8” value is recorded as −4.1. The IC50 at mTOR was found to be 0.042 µM; in data set [2], 0.0068 µM; in data set [3], 0.0402 µM.

With `Cc1nc(N(C)C)ccc1-n1c(=O)n(C)c2cnc3ccc(-c4cncc(N)c4)cc3c21` [Example 19.5, 8-(5-Amino-pyridin-3-yl)-1-(6-dimethylamino-2-methyl-pyridin-3-yl)-3-methyl-1,3-dihydro-imidazo[4,5-c]quinolin-2-one], the “HT-Perm logPe pH6.8” value in data set [1] is recorded as −5.2. Also, the IC50 on mTOR was 0.009 µM; in data set [2], 0.0069 µM; in data set [3] it was 0.0112 µM.

Turning to `COCC(=O)Nc1ccc(-n2c(=O)n(C)c3cnc4ccc(-c5cncc(N)c5)cc4c32)c(C)n1` [Example 20.1, N-{5-[8-(5-Amino-pyridin-3-yl)-3-methyl-2-oxo-2,3-dihydro-imidazo[4,5-c]quinolin-1-yl]-6-methyl-pyridin-2-yl}-2-methoxy-acetamide], the “HT-Perm logPe pH6.8” value in data set [1] is −6.1. For the same compound, the IC50 came to 0.007 µM on mTOR, 0.287 µM in data set [2] and 0.17 µM in data set [3].

Regarding `Cc1nc(N2CC(F)(F)C2)ccc1-n1c(=O)n(C)c2cnc3ccc(-c4cncc(C(C)(C)O)c4)cc3c21` [Example 24.2, 1-[6-(3,3-Difluoro-azetidin-1-yl)-2-methyl-pyridin-3-yl]-8-[5-(1-hydroxy-1-methyl-ethyl)-pyridin-3-yl]-3-methyl-1,3-dihydro-imidazo[4,5-c]quinolin-2-one], the “HT-Perm logPe pH6.8” value in data set [1] is −5. Further, the IC50 on mTOR was 0.048 µM; in data set [2] it was 0.0175 µM; in data set [3], 0.0307 µM.

Turning to `CNc1ccc(-c2ccc3ncc4c(c3c2)n(-c2ccc(N3CCCC3)nc2C)c(=O)n4C)cn1` [Example 25.1, 3-Methyl-8-(6-methylamino-pyridin-3-yl)-1-(2-methyl-6-pyrrolidin-1-yl-pyridin-3-yl)-1,3-dihydro-imidazo[4,5-c]quinolin-2-one], the “HT-Perm logPe pH6.8” value in data set [1] is on record as −3.9. Also, the IC50 was determined as 0.034 µM at mTOR, 0.0115 µM in data set [2] and 0.0107 µM in data set [3].

With `Cc1nc(N2CCC(O)C2)ccc1-n1c(=O)n(C)c2cnc3ccc(-c4cncc(OC(C)C)c4)cc3c21` (centres unmarked) [Example 27.1, 1-[6-(3-Hydroxy-pyrrolidin-1-yl)-2-methyl-pyridin-3-yl]-8-(5-isopropoxy-pyridin-3-yl)-3-methyl-1,3-dihydro-imidazo[4,5-c]quinolin-2-one], in data set [1], the “HT-Perm logPe pH6.8” value is given as −4.9. Moreover, the IC50 at mTOR worked out at 0.025 µM; in data set [2], 0.0411 µM; in data set [3], 0.0857 µM.

Consider `CNc1cc(-c2ccc3ncc4c(c3c2)n(-c2ccc(C(F)(F)F)nc2C)c(=O)n4C)cnc1CO` [Example 33.2, 8-(6-Hydroxymethyl-5-methylamino-pyridin-3-yl)-3-methyl-1-(2-methyl-6-trifluoromethyl-pyridin-3-yl)-1,3-dihydro-imidazo[4,5-c]quinolin-2-one], for which, in data set [1], the “HT-Perm logPe pH6.8” value was −4.8. The IC50 on mTOR was 0.003 µM; in data set [2] it was 0.0052 µM; in data set [3], less than 0.00447 µM.

As to `Cc1nc(N2CC(F)(F)C(F)(F)C2)ccc1-n1c(=O)n(C)c2cnc3ccc(-c4cncc(C(C)(C)O)c4)cc3c21` [Example 35.1, 8-[5-(1-Hydroxy-1-methyl-ethyl)-pyridin-3-yl]-3-methyl-1-[2-methyl-6-(3,3,4,4-tetrafluoro-pyrrolidin-1-yl)-pyridin-3-yl]-1,3-dihydro-imidazo[4,5-c]quinolin-2-one], the “HT-Perm logPe pH6.8” value in data set [1] is given as −4.3. In addition, the IC50 on mTOR is 0.068 µM; in data set [2], 0.0146 µM; in data set [3], 0.0279 µM.
